# Test system: G-401 tumor spheroids, viability % test/control
# Assay: Anticancer human tumor G-401 cell line growth inhibition;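 also: spheroids exposed to compound for 7 days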;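 as to viability, T/C: 100% = DMSO vehicle-treated spheroids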
# Conditions: spheroids with HUVEC and MSC; for IC50: curve of first compound; for viability, T/C: stronger effect = lower value
# In short: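 Complex spheroids of malignant cells with endothelial cells and mesenchymal stem cells; agents alone or combined, from near clinical Cmax (or 10 microM if unknown) down in half-log steps, 0.25% DMSO final.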
# [1] = second compound 1 µM, first compound 0.0316 µM
# [2] = second compound 1 µM, first compound 0.1 µM
# [3] = second compound 1 µM, first compound 0.316 µM
# [4] = second compound 1 µM, first compound 1 µM
# [5] = second compound 1 µM, first compound 3.16 µM
# [6] = second compound 1 µM, first compound 10 µM
# [7] = second compound 3.16 µM, first compound 0.0316 µM
# [8] = second compound 3.16 µM, first compound 0.1 µM
# [9] = second compound 3.16 µM, first compound 0.316 µM
# [10] = second compound 3.16 µM, first compound 1 µM
# [11] = second compound 3.16 µM, first compound 3.16 µM
# [12] = second compound 3.16 µM, first compound 10 µM
# [13] = second compound 10 µM, first compound 0.0316 µM
# [14] = second compound 10 µM, first compound 0.1 µM
# [15] = second compound 10 µM, first compound 0.316 µM
# [16] = second compound 10 µM, first compound 1 µM
# [17] = second compound 10 µM, first compound 3.16 µM
# [18] = second compound 10 µM, first compound 10 µM
# [19] = second compound 31.6 µM, first compound 0.0316 µM
# [20] = second compound 31.6 µM, first compound 0.1 µM
# [21] = second compound 31.6 µM, first compound 0.316 µM
# [22] = second compound 31.6 µM, first compound 1 µM
# [23] = second compound 31.6 µM, first compound 3.16 µM
# [24] = second compound 31.6 µM, first compound 10 µM
# [25] = second compound 100 µM, first compound 0.0316 µM
# [26] = second compound 100 µM, first compound 0.1 µM
# [27] = second compound 100 µM, first compound 0.316 µM
# [28] = second compound 100 µM, first compound 1 µM
# [29] = second compound 100 µM, first compound 3.16 µM
# [30] = second compound 100 µM, first compound 10 µM
Structure (SMILES),IC50 (second compound 1 µM),IC50 (second compound 3.16 µM),IC50 (second compound 10 µM),IC50 (second compound 31.6 µM),IC50 (second compound 100 µM),"viability, T/C [1]","viability, T/C [2]","viability, T/C [3]","viability, T/C [4]","viability, T/C [5]","viability, T/C [6]","viability, T/C [7]","viability, T/C [8]","viability, T/C [9]","viability, T/C [10]","viability, T/C [11]","viability, T/C [12]","viability, T/C [13]","viability, T/C [14]","viability, T/C [15]",other results
CC1COCCN1c1cc(-c2ccnn2C)c2ccnc(-c3ccn[nH]3)c2n1 (stereo not given) + Cn1nnc2c(C(N)=O)ncn2c1=O,76.9 nM,86.6 nM,79.7 nM,70 nM,55.6 nM,76.3%,42.1%,22.9%,15.9%,16.1%,20%,79.8%,45.6%,24.9%,16.8%,17.4%,19.8%,76%,43.6%,21.5%,"viability, T/C [16]: 15.7%; viability, T/C [17]: 16.4%; viability, T/C [18]: 18.8%; viability, T/C [19]: 74.5%; viability, T/C [20]: 39%; viability, T/C [21]: 18%; viability, T/C [22]: 15.4%; viability, T/C [23]: 16.2%; viability, T/C [24]: 18.5%; viability, T/C [25]: 66%; viability, T/C [26]: 33.4%; viability, T/C [27]: 13.7%; viability, T/C [28]: 12.7%; viability, T/C [29]: 14.1%; viability, T/C [30]: 12%"
COc1cc(C)[nH]c(=O)c1CN1CCc2c(Cl)cc(C(OC)C3COC3)c(Cl)c2C1=O (stereo not given) + Cn1nnc2c(C(N)=O)ncn2c1=O,160 nM,201 nM,145 nM,208 nM,203 nM,88.4%,57.9%,38.3%,31.7%,21.3%,27.6%,86.3%,63%,41.2%,30.4%,24.3%,23.5%,81%,59.9%,25.5%,"viability, T/C [16]: 33.8%; viability, T/C [17]: 30.4%; viability, T/C [18]: 27.2%; viability, T/C [19]: 81.8%; viability, T/C [20]: 60.8%; viability, T/C [21]: 43.9%; viability, T/C [22]: 32.2%; viability, T/C [23]: 27.9%; viability, T/C [24]: 23.4%; viability, T/C [25]: 88.3%; viability, T/C [26]: 62%; viability, T/C [27]: 43.3%; viability, T/C [28]: 29.6%; viability, T/C [29]: 30.8%; viability, T/C [30]: 24.7%"
Cc1cc(C)c(CNC(=O)c2cc(-c3ccc(CN4CCOCC4)cc3)cc3c2cnn3C2CCCC2)c(=O)[nH]1 + Cn1nnc2c(C(N)=O)ncn2c1=O,> 10000 nM,> 10000 nM,> 10000 nM,> 10000 nM,8790 nM,111%,106%,95.8%,105%,87.9%,62.5%,103%,104%,105%,93.3%,80.6%,55.8%,103%,99%,97.1%,"viability, T/C [16]: 90.1%; viability, T/C [17]: 82.6%; viability, T/C [18]: 53.5%; viability, T/C [19]: 94.3%; viability, T/C [20]: 94.4%; viability, T/C [21]: 92.9%; viability, T/C [22]: 91.5%; viability, T/C [23]: 80.5%; viability, T/C [24]: 52%; viability, T/C [25]: 96.5%; viability, T/C [26]: 103%; viability, T/C [27]: 94.3%; viability, T/C [28]: 93.6%; viability, T/C [29]: 74.2%; viability, T/C [30]: 46.9%"
[2H]c1nc(C)nc([2H])c1-c1cc(NC[C@@H](C)c2cccc3c(C(=O)NC)ccnc23)ncn1 + Cn1nnc2c(C(N)=O)ncn2c1=O,> 10000 nM,> 10000 nM,> 10000 nM,> 10000 nM,> 10000 nM,101%,106%,110%,102%,107%,103%,105%,99.3%,101%,99.8%,105%,103%,93%,99.6%,101%,"viability, T/C [16]: 96%; viability, T/C [17]: 108%; viability, T/C [18]: 94%; viability, T/C [19]: 96.3%; viability, T/C [20]: 101%; viability, T/C [21]: 99.7%; viability, T/C [22]: 100%; viability, T/C [23]: 94.2%; viability, T/C [24]: 97.4%; viability, T/C [25]: 95.9%; viability, T/C [26]: 94.8%; viability, T/C [27]: 105%; viability, T/C [28]: 92.8%; viability, T/C [29]: 89.6%; viability, T/C [30]: 86.5%"
